Usually IC50 stands for the concentration needed to halve the response being measured.

For this assay, the system named is Myc. The experiment in a line: Myc inhibition assay: Myc expression per cell by anti-Myc immunofluorescence, high-content imaging. The settings on record: medulloblastoma PDX cells, 4 h. It counts as cell-based, human (patient-derived medulloblastoma xenograft cells). The method in brief: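 IC50 comes from high-content imaging of per-cell Myc immunostaining (DAPI-labelled nuclei) after 4 h compound exposure. Cells were freshly dissociated medulloblastoma PDX tumours, never passaged in vitro, grown in NSG mouse cerebellum, plated serum-free and recovered overnight before treatment.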

Where [1] appears, read: Table 1, read-out: IC50 (Myc inhibition).
The mark [2] stands for this setting: Table 2, read-out: MYC Inhibition IC50.

Read-outs that look alike come from different tables or passages of the source.

In the case of `N#Cc1ccc(Nc2nccc(-c3ccc4[nH]cnc4c3)n2)cc1` [Compound 99, 4-((4-(1H-benzo[d]imidazol-5-yl)pyrimidin-2-yl)amino)benzonitrile], the IC50 by setting is: under setting [1], 200 to 1000 nM; under setting [2], 200 to 1000 nM.

With `FC(F)(F)Oc1cccc(Nc2nccc(-c3ccc4[nH]cnc4c3)n2)c1` [Compound 100, 4-(1H-benzo[d]imidazol-5-yl)-N-(3-(trifluoromethoxy)phenyl)pyrimidin-2-amine], the IC50 is 200 to 1000 nM under setting [1] and 200 to 1000 nM under setting [2].

Turning to `c1cc(-c2ccc3[nH]cnc3c2)nc(NC2CCOCC2)n1` [Compound 101, 4-(1H-benzo[d]imidazol-5-yl)-N-(tetrahydro-2H-pyran-4-yl)pyrimidin-2-amine], the IC50 lay in the range of 1000 to 10000 nM under setting [1] and 1000 to 10000 nM under setting [2].

In the case of `c1cc(Nc2nccc(-c3ccc4[nH]cnc4c3)n2)cc(N2CCOCC2)c1` [Compound 102, 4-(1H-benzo[d]imidazol-5-yl)-N-(3-morpholinophenyl)pyrimidin-2-amine], the IC50 reads like this: under setting [1], less than 200 nM; under setting [2], less than 200 nM.

Regarding `Cc1ccc(Nc2nccc(-c3ccc4[nH]cnc4c3)n2)cc1` [Compound 103, 4-(1H-benzo[d]imidazol-5-yl)-N-(p-tolyl)pyrimidin-2-amine], the IC50 by setting is: under setting [1], 200 to 1000 nM; under setting [2], 200 to 1000 nM.

As for `CC(C)Nc1nccc(-c2ccc3[nH]cnc3c2)n1` [Compound 104, 4-(1H-benzo[d]imidazol-5-yl)-N-isopropylpyrimidin-2-amine], the IC50 runs as follows: under setting [1], 1000 to 10000 nM; under setting [2], 1000 to 10000 nM.

For `FC(F)(F)c1cccc(Nc2ncnc(-c3cnc4nc[nH]c4c3)n2)c1` [Compound 105, 4-(1H-Imidazo[4,5-b]pyridin-6-yl)-N-(3-(trifluoromethyl)phenyl)-1,3,5-triazin-2-amine], the IC50 under setting [1] is less than 200 nM and the IC50 under setting [2] is less than 200 nM.

On to `FC(F)(F)c1cncc(Nc2nccc(-c3cnc4nc[nH]c4c3)n2)c1` [Compound 106, 4-(1H-imidazo[4,5-b]pyridin-6-yl)-N-(5-(trifluoromethyl)pyridin-3-yl)pyrimidin-2-amine], for which the IC50 is, setting by setting: under setting [1], less than 200 nM; under setting [2], less than 200 nM.

`FC(F)(F)c1cccc(Nc2nccc(-c3cn4ccnc4cn3)n2)c1` [Compound 107, 4-(Imidazo[1,2-a]pyrazin-6-yl)-N-(3-(trifluoromethyl)phenyl)pyrimidin-2-amine]: the IC50 under setting [1] fell in the range of 1000 to 10000 nM and the IC50 under setting [2] fell in the range of 1000 to 10000 nM.

As for `COc1ccc(Nc2ccnc(Nc3cccc(F)c3)n2)cn1` [Compound 108, N^2-(3-fluorophenyl)-N^4-(6-methoxypyridin-3-yl)pyrimidine-2,4-diamine], the IC50 is, setting by setting: under setting [1], 1000 to 10000 nM; under setting [2], 1000 to 10000 nM.

On to `COc1ccc(Oc2ccnc(Nc3cccc(C(F)(F)F)c3)n2)cn1` [Compound 109, 4-((6-methoxypyridin-3-yl)oxy)-N-(3-(trifluoromethyl)phenyl)pyrimidin-2-amine], for which the IC50 reads like this: under setting [1], 1000 to 10000 nM; under setting [2], 1000 to 10000 nM.

Take `Oc1ccc(Oc2ccnc(Nc3cccc(F)c3)n2)cn1` [Compound 110, 5-((2-((3-fluorophenyl)amino)pyrimidin-4-yl)oxy)pyridin-2-ol]: the IC50 under setting [1] was 1000 to 10000 nM and the IC50 under setting [2] fell in the range of 1000 to 10000 nM.

In the case of `FC(F)(F)c1cccc(Nc2nccc(NCCc3cnc[nH]3)n2)c1` [Compound 111, N^4-(2-(1H-Imidazol-4-yl)ethyl)-N^2-(3-(trifluoromethyl)phenyl)pyrimidine-2,4-diamine], the IC50 is, setting by setting: under setting [1], 1000 to 10000 nM; under setting [2], 1000 to 10000 nM.

Turning to `FC(F)(F)c1cccc(Nc2nccc(N3CCc4[nH]cnc4C3)n2)c1` [Compound 112, 4-(1,4,6,7-tetrahydro-5H-imidazo[4,5-c]pyridin-5-yl)-N-(3-(trifluoromethyl)phenyl)pyrimidin-2-amine], the IC50 runs as follows: under setting [1], 1000 to 10000 nM; under setting [2], 1000 to 10000 nM.

As to `Cc1cnc(Nc2cccc(C(F)(F)F)c2)nc1-c1cnc2nc[nH]c2c1` [Compound 113, 4-(1H-imidazo[4,5-b]pyridin-6-yl)-5-methyl-N-(3-(trifluoromethyl)phenyl)pyrimidin-2-amine], the IC50 reads like this: under setting [1], 1000 to 10000 nM; under setting [2], 1000 to 10000 nM.

Turning to `Cc1cc2nc[nH]c2cc1-c1ccnc(Nc2cccc(C(F)(F)F)c2)n1` [Compound 114, 4-(5-methyl-1H-benzo[d]imidazol-6-yl)-N-(3-(trifluoromethyl)phenyl)pyrimidin-2-amine], the IC50 under setting [1] fell in the range of 1000 to 10000 nM and the IC50 under setting [2] fell in the range of 1000 to 10000 nM.

Consider `Fc1cc(-c2ccnc(Nc3cccc(C(F)(F)F)c3)n2)cc2nc[nH]c12` [Compound 115, 4-(7-fluoro-1H-benzo[d]imidazol-5-yl)-N-(3-(trifluoromethyl)phenyl)pyrimidin-2-amine], for which the IC50 runs as follows: under setting [1], less than 200 nM; under setting [2], less than 200 nM.

For the molecule `O=c1[nH]c2ccc(-c3ccnc(Nc4cccc(C(F)(F)F)c4)n3)cc2[nH]1` [Compound 116, 5-(2-((3-(trifluoromethyl)phenyl)amino)pyrimidin-4-yl)-1H-benzo[d]imidazol-2(3H)-one], the IC50 reads like this: under setting [1], 10000 to 100000 nM; under setting [2], 10000 to 100000 nM.

In the case of `O=c1[nH]c2ccc(-c3ccnc(Nc4cccc(F)c4)n3)cc2[nH]1` [Compound 117, 5-(2-((3-fluorophenyl)amino)pyrimidin-4-yl)-1,3-dihydro-2H-benzo[d]imidazol-2-one], the IC50 under setting [1] lay within 10000 to 100000 nM and the IC50 under setting [2] lay in the range of 10000 to 100000 nM.

With `Oc1cc(Nc2ccnc(Nc3cccc(F)c3)n2)ccn1` [Compound 118, 4-((2-((3-fluorophenyl)amino)pyrimidin-4-yl)amino)pyridin-2-ol], the IC50 fell in the range of 10000 to 100000 nM under setting [1] and 10000 to 100000 nM under setting [2].

Regarding `Nc1ncc(-c2ccnc(Nc3cccc(C(F)(F)F)c3)n2)s1` [Compound 119, 5-(2-((3-(Trifluoromethyl)phenyl)amino)pyrimidin-4-yl)thiazol-2-amine], the IC50 is less than 200 nM under setting [1] and less than 200 nM under setting [2].

As to `NCCOc1cccc(Nc2nccc(-c3ccnc(O)c3)n2)c1` [Compound 120, 4-(2-((3-(2-aminoethoxy)phenyl)amino)pyrimidin-4-yl)pyridin-2-ol], the IC50 was in the range of 1000 to 10000 nM under setting [1] and 1000 to 10000 nM under setting [2].

In the case of `COc1cc(-c2ccnc(Nc3cccc(OCCN)c3)n2)ccn1` [Compound 121, N-(3-(2-aminoethoxy)phenyl)-4-(2-methoxypyridin-4-yl)pyrimidin-2-amine], the IC50 reads like this: under setting [1], 1000 to 10000 nM; under setting [2], 1000 to 10000 nM.

In the case of `COc1cc(Nc2ccnc(Nc3cccc(F)c3)n2)ccn1` [Compound 122, N^2-(3-fluorophenyl)-N^4-(2-methoxypyridin-4-yl)pyrimidine-2,4-diamine], the IC50 under setting [1] was 1000 to 10000 nM and the IC50 under setting [2] is 1000 to 10000 nM.

Consider `Oc1ccc(Nc2ccnc(Nc3cccc(F)c3)n2)cn1` [Compound 123, 5-((2-((3-fluorophenyl)amino)pyrimidin-4-yl)amino)pyridin-2-ol], for which the concentration for half-maximal inhibition (IC50) under setting [1] lay within 10000 to 100000 nM and the IC50 under setting [2] lay within 10000 to 100000 nM.

For the molecule `COc1ccc(Oc2ccnc(Nc3cccc(F)c3)n2)cn1` [Compound 124], the half-inhibitory concentration (IC50) lay in the range of 10000 to 100000 nM under setting [1] and 10000 to 100000 nM under setting [2].

Turning to `Cc1c(-c2ccnc(Nc3cccc(C(F)(F)F)c3)n2)ccc2[nH]cnc12` [Compound 125, 4-(4-methyl-1H-benzo[d]imidazol-5-yl)-N-(3-(trifluoromethyl)phenyl)pyrimidin-2-amine], the IC50 runs as follows: under setting [1], 1000 to 10000 nM; under setting [2], 1000 to 10000 nM.

Regarding `Fc1cc2[nH]cnc2cc1-c1ccnc(Nc2cccc(C(F)(F)F)c2)n1` [Compound 126, 4-(6-fluoro-1H-benzo[d]imidazol-5-yl)-N-(3-(trifluoromethyl)phenyl)pyrimidin-2-amine], the IC50 under setting [1] is 200 to 1000 nM and the half-inhibitory concentration (IC50) under setting [2] is 200 to 1000 nM.

For the molecule `FC(F)(F)c1cccc(Nc2nccc(-c3ccc4nccn4c3)n2)c1` [Compound 127, 4-(Imidazo[1,2-a]pyridin-6-yl)-N-(3-(trifluoromethyl)phenyl)pyrimidin-2-amine], the IC50 lay in the range of 200 to 1000 nM under setting [1] and 200 to 1000 nM under setting [2].

Turning to `OCCOc1cccc(Nc2nccc(-c3ccnc(O)c3)n2)c1` [Compound 128, 4-(2-((3-(2-hydroxyethoxy)phenyl)amino)pyrimidin-4-yl)pyridin-2-ol], the 50% inhibitory concentration (IC50) reads like this: under setting [1], 1000 to 10000 nM; under setting [2], 1000 to 10000 nM.

Regarding `COc1cc(-c2ccnc(Nc3cccc(OCCO)c3)n2)ccn1` [Compound 129, 2-(3-((4-(2-methoxypyridin-4-yl)pyrimidin-2-yl)amino)phenoxy)ethan-1-ol], the IC50 runs as follows: under setting [1], 1000 to 10000 nM; under setting [2], 1000 to 10000 nM.

For the molecule `Oc1ccc(-c2ccnc(Nc3cccc(C(F)(F)F)c3)n2)cc1` [Compound 130, 4-(2-((3-(Trifluoromethyl)phenyl)amino)pyrimidin-4-yl)phenol], the IC50 fell in the range of 200 to 1000 nM under setting [1] and 200 to 1000 nM under setting [2].

For `Oc1cc(-c2ccnc(Nc3cccc(C(F)(F)F)c3)n2)ncn1` [Compound 131, 2′-((3-(trifluoromethyl)phenyl)amino)-[4,4′-bipyrimidin]-6-ol], the 50% inhibitory concentration (IC50) lay within 1000 to 10000 nM under setting [1] and 1000 to 10000 nM under setting [2].

Take `FC(F)(F)c1cccc(Nc2nccc(-c3cnc4cc[nH]c4c3)n2)c1` [Compound 132, 4-(1H-pyrrolo[3,2-b]pyridin-6-yl)-N-(3-(trifluoromethyl)phenyl)pyrimidin-2-amine]: the IC50 is, setting by setting: under setting [1], 200 to 1000 nM; under setting [2], 200 to 1000 nM.

With `CCCc1cccc(Nc2nccc(-c3cnc4nc[nH]c4c3)n2)c1` [Compound 133, 4-(1H-imidazo[4,5-b]pyridin-6-yl)-N-(3-propylphenyl)pyrimidin-2-amine], the IC50 reads like this: under setting [1], less than 200 nM; under setting [2], less than 200 nM.

On to `CC(C)c1cccc(Nc2nccc(-c3cnc4nc[nH]c4c3)n2)c1` [Compound 134, 4-(1H-imidazo[4,5-b]pyridin-6-yl)-N-(3-isopropylphenyl)pyrimidin-2-amine], for which the IC50 was less than 200 nM under setting [1] and less than 200 nM under setting [2].

For the origin of these results see patent publication US20260356817A1, “AMINOPYRIMIDINE AND AMINOTRIAZINE DERIVATIVES AS MYC PROTEIN MODULATORS” (Sanford Burnham Prebys Medical Discovery Institute, priority 2022, published 2026).
